Values of other authors in patent publication EP0077028B1, “Renin inhibitory peptides” (Merck & Co., Inc., priority 1981, dated 1987).

Tested on: hog renin
Details: after the injection of hog renin into nephrectomized rats

Q: For pepstatin, which “blood pressure in vivo” value is on record?
A: Its value is “reduce blood pressure”.
